Measured values reported in patent US20250230165A1, “HETEROCYCLIC COMPOUNDS FOR USE IN THE TREATMENT OF CANCER” (ARTIOS PHARMA LIMITED, priority 2021, published 2025).

Molecular target: T1, Human Polθ polymerase domain (aa1820-2590) (Homo sapiens, UniProt O75417)
T1 construct: Human Polθ polymerase domain (aa1820-2590) was expressed in E. coli; made in house; host or cells: E. coli
T1 sequence (O75417 1820-2590): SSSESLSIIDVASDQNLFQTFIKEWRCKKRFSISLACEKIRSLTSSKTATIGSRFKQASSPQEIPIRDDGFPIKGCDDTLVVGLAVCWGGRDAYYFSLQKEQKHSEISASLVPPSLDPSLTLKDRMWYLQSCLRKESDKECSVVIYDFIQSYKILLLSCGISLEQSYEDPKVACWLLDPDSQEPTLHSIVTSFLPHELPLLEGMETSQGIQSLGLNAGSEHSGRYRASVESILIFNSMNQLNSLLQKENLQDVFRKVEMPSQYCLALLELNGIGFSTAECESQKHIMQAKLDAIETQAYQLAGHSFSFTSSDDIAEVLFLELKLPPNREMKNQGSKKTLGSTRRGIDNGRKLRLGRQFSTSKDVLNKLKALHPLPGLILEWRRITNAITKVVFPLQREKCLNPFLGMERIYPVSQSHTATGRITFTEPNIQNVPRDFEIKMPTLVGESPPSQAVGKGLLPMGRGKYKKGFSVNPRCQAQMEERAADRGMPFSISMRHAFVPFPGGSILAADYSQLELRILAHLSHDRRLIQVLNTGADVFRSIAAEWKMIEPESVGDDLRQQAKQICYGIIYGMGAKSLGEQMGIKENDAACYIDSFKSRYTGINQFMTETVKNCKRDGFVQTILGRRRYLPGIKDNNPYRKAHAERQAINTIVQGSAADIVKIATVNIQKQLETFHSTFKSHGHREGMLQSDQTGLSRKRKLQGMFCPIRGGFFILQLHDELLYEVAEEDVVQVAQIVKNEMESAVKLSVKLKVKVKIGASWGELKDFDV
Experiment: Polθ Polymerase Domain Kinact/KI Assay (PicoGreen)
Format: biochemical
Conditions: 0.8 nM Polθ, 100 nM DNA substrate, kobs vs [I] fit for 2-step covalent inhibitor
Summary of the method: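 Covalent Kinact/KI by PicoGreen DNA synthesis readout: E. coli-expressed Polθ polymerase domain (0.8 nM), 100 nM annealed DNA substrate, […], Tris pH 7.5 buffer with DTT, 1% DMSO; EDTA-stopped over 0–60 min time course. kobs from progress curves, then kobs vs [I] fit to two-step covalent model.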

Structure (SMILES)	Kinact/Kl [M⁻¹ s⁻¹]
C=CC(=O)Nc1ccc(CN2C[C@H]3CC(=O)N(c4cc(C(F)(F)F)cc(C)n4)[C@@H]3C(=O)N(C)c3cccc(C)c32)cc1N(C)CCN(C)C [Example 91, N-(4-(((3aR,11aS)-6,10-dimethyl-1-(6-methyl-4-(trifluoromethyl)pyridin-2-yl)-2,11-dioxo-1,2,3,3a,4,10,11,11a-octahydro-5H-benzo[b]pyrrolo[2,3-f][1,4]diazocin-5-yl)methyl)-2-((2-(dimethylamino)ethyl)(methyl)amino)phenyl)acrylamide]	4.38e+06
C=CC(=O)N1CC(N2CCC(CN3C[C@H]4CC(=O)N(c5cc(C(F)(F)F)cc(C)n5)[C@@H]4C(=O)N(C)c4cccc(Cl)c43)CC2)C1 [Example 92, (3aR,11aS)-5-((1-(1-acryloylazetidin-3-yl)piperidin-4-yl)methyl)-6-chloro-10-methyl-1-(6-methyl-4-(trifluoromethyl)pyridin-2-yl)-1,3a,4,5,10,11a-hexahydro-2H-benzo[b]pyrrolo[2,3-f][1,4]diazocine-2,11(3H)-dione]	2.56e+06
C=CC(=O)N1CC(N2CCC(CN3C[C@H]4CC(=O)N(c5cc(C(F)(F)F)cc(C)n5)[C@@H]4C(=O)N(C)c4cccc(C)c43)CC2)C1 [Example 93, (3aR,11aS)-5-((1-(1-acryloylazetidin-3-yl)piperidin-4-yl)methyl)-6,10-dimethyl-1-(6-methyl-4-(trifluoromethyl)pyridin-2-yl)-1,3a,4,5,10,11a-hexahydro-2H-benzo[b]pyrrolo[2,3-f][1,4]diazocine-2,11(3H)-dione]	2.73e+06
C=CC(=O)N1CC(N2CCC(F)(CN3C[C@H]4CC(=O)N(c5cc(C(F)(F)F)cc(C)n5)[C@@H]4C(=O)N(C)c4cccc(C)c43)CC2)C1 [Example 94, (3aR,11aS)-5-((1-(1-acryloylazetidin-3-yl)-4-fluoropiperidin-4-yl)methyl)-6,10-dimethyl-1-(6-methyl-4-(trifluoromethyl)pyridin-2-yl)-1,3a,4,5,10,11a-hexahydro-2H-benzo[b]pyrrolo[2,3-f][1,4]diazocine-2,11(3H)-dione]	1.54e+06
C=CC(=O)N1CC(N2CCC(CN3C[C@H]4CC(=O)N(c5cc(C(F)(F)F)cc(C)n5)[C@@H]4C(=O)N(C)c4cccc(Cl)c43)C(O)C2)C1 (stereo partly drawn) [Example 96, (3aR,11aS)-5-((1-(1-acryloylazetidin-3-yl)-3-hydroxypiperidin-4-yl)methyl)-6-chloro-10-methyl-1-(6-methyl-4-(trifluoromethyl)pyridin-2-yl)-1,3a,4,5,10,11a-hexahydro-2H-benzo[b]pyrrolo[2,3-f][1,4]diazocine-2,11(3H)-dione]	810000
C=CC(=O)N1CC(N2CCN(C(C)CN3C[C@H]4CC(=O)N(c5cc(C(F)(F)F)cc(C)n5)[C@@H]4C(=O)N(C)c4cccc(F)c43)CC2)C1 (stereo partly drawn) [Example 97, (3aR,11aS)-5-(2-(4-(1-acryloylazetidin-3-yl)piperazin-1-yl)propyl)-6-fluoro-10-methyl-1-(6-methyl-4-(trifluoromethyl)pyridin-2-yl)-1,3a,4,5,10,11a-hexahydro-2H-benzo[b]pyrrolo[2,3-f][1,4]diazocine-2,11(3H)-dione]	1.18e+06
C=CC(=O)N1CC(c2nc(CN3C[C@H]4CC(=O)N(c5cc(C(F)(F)F)cc(C)n5)[C@@H]4C(=O)N(C)c4cccc(F)c43)n[nH]2)C1 [Example 98, (3aR,11aS)-5-((5-(1-acryloylazetidin-3-yl)-1H-1,2,4-triazol-3-yl)methyl)-6-fluoro-10-methyl-1-(6-methyl-4-(trifluoromethyl)pyridin-2-yl)-1,3a,4,5,10,11a-hexahydro-2H-benzo[b]pyrrolo[2,3-f][1,4]diazocine-2,11(3H)-dione]	430000
C=CC(=O)N1CC(c2nc(CN3C[C@H]4CC(=O)N(c5cc(C(F)(F)F)cc(C)n5)[C@@H]4C(=O)N(C)c4cccc(F)c43)n(C)n2)C1 [Example 99, (3aR,11aS)-5-((3-(1-acryloylazetidin-3-yl)-1-methyl-1H-1,2,4-triazol-5-yl)methyl)-6-fluoro-10-methyl-1-(6-methyl-4-(trifluoromethyl)pyridin-2-yl)-1,3a,4,5,10,11a-hexahydro-2H-benzo[b]pyrrolo[2,3-f][1,4]diazocine-2,11(3H)-dione]	170000
C=CC(=O)N1CC(c2nc(CN3C[C@H]4CC(=O)N(c5cc(C(F)(F)F)cc(C)n5)[C@@H]4C(=O)N(C)c4cccc(F)c43)no2)C1 [Example 101, (3aR,11aS)-5-((5-(1-acryloylazetidin-3-yl)-1,2,4-oxadiazol-3-yl)methyl)-6-fluoro-10-methyl-1-(6-methyl-4-(trifluoromethyl)pyridin-2-yl)-1,3a,4,5,10,11a-hexahydro-2H-benzo[b]pyrrolo[2,3-f][1,4]diazocine-2,11(3H)-dione]	1.47e+06
C=CC(=O)N1CC(c2nnc(CN3C[C@H]4CC(=O)N(c5cc(C(F)(F)F)cc(C)n5)[C@@H]4C(=O)N(C)c4cccc(F)c43)o2)C1 [Example 103, (3aR,11aS)-5-((5-(1-acryloylazetidin-3-yl)-1,3,4-oxadiazol-2-yl)methyl)-6-fluoro-10-methyl-1-(6-methyl-4-(trifluoromethyl)pyridin-2-yl)-1,3a,4,5,10,11a-hexahydro-2H-benzo[b]pyrrolo[2,3-f][1,4]diazocine-2,11(3H)-dione]	1.6e+06

More lines, now with the values ahead:

Kinact/Kl [M⁻¹ s⁻¹]	Structure (SMILES)
100000	C=CC(=O)N1CC(c2nc(CN3C[C@H]4CC(=O)N(c5cc(C(F)(F)F)cc(C)n5)[C@@H]4C(=O)N(C)c4cccc(F)c43)nn2C)C1 [Example 100, (3aR,11aS)-5-((5-(1-acryloylazetidin-3-yl)-1-methyl-1H-1,2,4-triazol-3-yl)methyl)-6-fluoro-10-methyl-1-(6-methyl-4-(trifluoromethyl)pyridin-2-yl)-1,3a,4,5,10,11a-hexahydro-2H-benzo[b]pyrrolo[2,3-f][1,4]diazocine-2,11(3H)-dione]
1.16e+06	C=CC(=O)N1CC(c2noc(CN3C[C@H]4CC(=O)N(c5cc(C(F)(F)F)cc(C)n5)[C@@H]4C(=O)N(C)c4cccc(F)c43)n2)C1 [Example 102, (3aR,11aS)-5-((3-(1-acryloylazetidin-3-yl)-1,2,4-oxadiazol-5-yl)methyl)-6-fluoro-10-methyl-1-(6-methyl-4-(trifluoromethyl)pyridin-2-yl)-1,3a,4,5,10,11a-hexahydro-2H-benzo[b]pyrrolo[2,3-f][1,4]diazocine-2,11(3H)-dione]
1.86e+06	C=CC(=O)N1CC2(CN(CCN3C[C@H]4CC(=O)N(c5cc(C(F)(F)F)cc(C)n5)[C@@H]4C(=O)N(C)c4cccc(F)c43)CC(=O)N2)C1 [Example 104, (3aR,11aS)-5-(2-(2-acryloyl-6-oxo-2,5,8-triazaspiro[3.5]nonan-8-yl)ethyl)-6-fluoro-10-methyl-1-(6-methyl-4-(trifluoromethyl)pyridin-2-yl)-1,3a,4,5,10,11a-hexahydro-2H-benzo[b]pyrrolo[2,3-f][1,4]diazocine-2,11(3H)-dione]
1.04e+06	C=CC(=O)N1CC2(CN(CCN3C[C@H]4CC(=O)N(c5cc(C(F)(F)F)cc(C)n5)[C@@H]4C(=O)N(C)c4cccc(F)c43)Cc3nccn32)C1 [Example 105, (3aR,11aS)-5-(2-(1-acryloyl-6′H-spiro[azetidine-3,5′-imidazo[1,2-a]pyrazin]-7′(8′H)-yl)ethyl)-6-fluoro-10-methyl-1-(6-methyl-4-(trifluoromethyl)pyridin-2-yl)-1,3a,4,5,10,11a-hexahydro-2H-benzo[b]pyrrolo[2,3-f][1,4]diazocine-2,11(3H)-dione]
1.14e+06	C=CC(=O)N1CC2(C1)CN(C(=O)CN1C[C@H]3CC(=O)N(c4cc(C(F)(F)F)cc(C)n4)[C@@H]3C(=O)N(C)c3cccc(F)c31)c1nccn12 [Example 106, (3aR,11aS)-5-(2-(1-acryloylspiro[azetidine-3,3′-imidazo[1,2-a]imidazo]-1′(2′H)-yl)ethyl)-6-fluoro-10-methyl-1-(6-methyl-4-(trifluoromethyl)pyridin-2-yl)-1,3a,4,5,10,11a-hexahydro-2H-benzo[b]pyrrolo[2,3-f][1,4]diazocine-2,11(3H)-dione]
2.49e+06	C=CC(=O)N1CC2(CN(CCN3C[C@H]4CC(=O)N(c5cc(C(F)(F)F)cc(C)n5)[C@@H]4C(=O)N(C)c4cccc(Cl)c43)CC(=O)N2C)C1 [Example 111, (3aR,11aS)-5-(2-(2-acryloyl-5-methyl-6-oxo-2,5,8-triazaspiro[3.5]nonan-8-yl)ethyl)-6-chloro-10-methyl-1-(6-methyl-4-(trifluoromethyl)pyridin-2-yl)-1,3a,4,5,10,11a-hexahydro-2H-benzo[b]pyrrolo[2,3-f][1,4]diazocine-2,11(3H)-dione]
